# In ChEMBL document CHEMBL4627364, “Design, synthesis and biological evaluation of novel hybrids of N-aryl pyrrothine-base α-pyrone as bacterial RNA polymerase inhibitors” (Bioorg Med Chem Lett, 2020):
# Assays:
# [1] = system: Staphylococcus aureus; assay: Antibacterial activity against Staphylococcus aureus ATCC 29213 assessed as bacterial growth inhibition; assay type: functional
# [2] = system: Escherichia coli; assay: Antibacterial activity against Escherichia coli ATCC 25922 assessed as bacterial growth inhibition; assay type: functional
# [3] = system: Bacillus subtilis; assay: Antibacterial activity against Bacillus subtilis ATCC 6633 assessed as bacterial growth inhibition; assay type: functional
# [4] = system: Enterococcus faecalis; assay: Antibacterial activity against Enterococcus faecalis ATCC 29212 assessed as bacterial growth inhibition; assay type: functional
# [5] = Inhibition of recombinant Escherichia coli RNA polymerase
# [6] = system: Pseudomonas aeruginosa; assay: Antibacterial activity against Pseudomonas aeruginosa ATCC 27853 assessed as bacterial growth inhibition; assay type: functional
# [7] = system: Escherichia coli; assay: Inhibition of Escherichia coli RNA polymerase at 200 uM relative to control
# [8] = system: Candida albicans; assay: Antifungal activity against Candida albicans ATCC 10231 assessed as fungal growth inhibition; assay type: functional
# [9] = system: Staphylococcus aureus; assay: Antibacterial activity against methicillin-resistant Staphylococcus aureus assessed as bacterial growth inhibition; assay type: functional
# [10] = system: Staphylococcus aureus; assay: Antibacterial activity against rifampicin-resistant Staphylococcus aureus assessed as bacterial growth inhibition; assay type: functional
# [11] = system: Staphylococcus aureus; assay: Antibacterial activity against vancomycin-resistant Staphylococcus aureus assessed as bacterial growth inhibition; assay type: functional
# [12] = system: HepG2; assay: Cytotoxicity against human HepG2 cells assessed as reduction in cell viability by MTT assay; assay type: cell-based
# [13] = Inhibition of Escherichia coli RNA polymerase
Structure (SMILES),MIC [1],MIC [2],MIC [3],MIC [4],IC50 [5],MIC [6],inhibition [7],MIC [8],MIC [9],MIC [10],MIC [11],IC50 [12],IC50 [13]
O=C(O)c1cn(C2CC2)c2cc(N3CCNCC3)c(F)cc2c1=O [CIPROFLOXACIN],0.078 µg/mL,0.00625 µg/mL,0.125 µg/mL,0.5 µg/mL,,,,,,,,,
CCC/C(C)=C/C=C(\C)C(=O)c1c(O)cc([C@H](C)CC/C=C/NC(=O)OC)oc1=O [MYXOPORIN A],,,,,24 µM,,,,,,,,
COc1ccc(-n2c3cssc-3c(NC(=O)NCCOC(=O)CCCC(=O)c3c(O)cc(C)oc3=O)c2=O)c(OC)c1,32 µg/mL,> 64 µg/mL,32 µg/mL,4 µg/mL,,> 128 µg/mL,25.3%,> 128 µg/mL,,,,,
COc1ccc(-n2c3cssc-3c(NC(=O)N(C)CCOC(=O)CCCCC(=O)c3c(O)cc(C)oc3=O)c2=O)c(OC)c1,2 µg/mL,> 128 µg/mL,32 µg/mL,16 µg/mL,,> 128 µg/mL,,> 128 µg/mL,1 to 2 µg/mL,1 to 2 µg/mL,4 to 8 µg/mL,2.76 µM,45.9 µM
COc1ccc(-n2c3cssc-3c(NC(=O)OCCOC(=O)CCCCCCC(=O)c3c(O)cc(C)oc3=O)c2=O)c(OC)c1,1 µg/mL,> 128 µg/mL,32 µg/mL,2 µg/mL,,> 128 µg/mL,,> 128 µg/mL,1 to 2 µg/mL,1 to 2 µg/mL,2 to 4 µg/mL,7.04 µM,16.1 µM
COc1ccc(-n2c3cssc-3c(NC(=O)CCCCC(=O)c3c(O)cc(C)oc3=O)c2=O)c(OC)c1,2 µg/mL,> 128 µg/mL,16 µg/mL,64 µg/mL,,> 128 µg/mL,42.4%,> 128 µg/mL,,,,,
CO[C@H]1/C=C/O[C@@]2(C)Oc3c(C)c(O)c4c(O)c(c(/C=N/N5CCN(C)CC5)c(O)c4c3C2=O)NC(=O)/C(C)=C\C=C\[C@H](C)[C@H](O)[C@@H](C)[C@@H](O)[C@@H](C)[C@H](OC(C)=O)[C@@H]1C [RIFAMPIN],0.5 µg/mL,8 µg/mL,0.125 µg/mL,0.5 µg/mL,,> 64 µg/mL,,> 64 µg/mL,0.125 to 0.25 µg/mL,> 64 µg/mL,0.0625 to 0.125 µg/mL,145 µM,0.14 µM
COc1ccc(-n2c3cssc-3c(NC(=O)CCCCCCC(=O)c3c(O)cc(C)oc3=O)c2=O)c(OC)c1,64 µg/mL,> 128 µg/mL,32 µg/mL,> 128 µg/mL,,> 128 µg/mL,43.4%,> 128 µg/mL,,,,,
COc1ccc(-n2c3cssc-3c(NC(=O)N(C)CCOC(=O)CCCCCCC(=O)c3c(O)cc(C)oc3=O)c2=O)c(OC)c1,16 µg/mL,> 64 µg/mL,32 µg/mL,8 µg/mL,,> 128 µg/mL,32.1%,> 128 µg/mL,,,,,
COc1ccc(-n2c3cssc-3c(NC(=O)CCCC(=O)c3c(O)cc(C)oc3=O)c2=O)c(OC)c1,2 µg/mL,> 64 µg/mL,32 µg/mL,16 µg/mL,,> 128 µg/mL,35.4%,> 128 µg/mL,1 to 2 µg/mL,2 to 4 µg/mL,4 to 8 µg/mL,29 µM,
COc1ccc(-n2c3cssc-3c(NC(=O)NCCOC(=O)CCCCC(=O)c3c(O)cc(C)oc3=O)c2=O)c(OC)c1,4 µg/mL,> 64 µg/mL,128 µg/mL,16 µg/mL,,> 128 µg/mL,36.5%,> 128 µg/mL,,,,,
CN[C@H](CC(C)C)C(=O)N[C@H]1C(=O)N[C@@H](CC(N)=O)C(=O)N[C@H]2C(=O)N[C@H]3C(=O)N[C@H](C(=O)N[C@H](C(=O)O)c4cc(O)cc(O)c4-c4cc3ccc4O)[C@H](O)c3ccc(c(Cl)c3)Oc3cc2cc(c3O[C@@H]2O[C@H](CO)[C@@H](O)[C@H](O)[C@H]2O[C@H]2C[C@](C)(N)[C@H](O)[C@H](C)O2)Oc2ccc(cc2Cl)[C@H]1O [VANCOMYCIN],,> 128 µg/mL,1 µg/mL,,,,,,1 to 2 µg/mL,1 to 2 µg/mL,> 64 µg/mL,,
COc1ccc(-n2c3cssc-3c(NC(=O)OCCOC(=O)CCCCC(=O)c3c(O)cc(C)oc3=O)c2=O)c(OC)c1,2 µg/mL,> 128 µg/mL,32 µg/mL,16 µg/mL,,> 128 µg/mL,,> 128 µg/mL,1 to 2 µg/mL,2 to 4 µg/mL,2 to 4 µg/mL,9.43 µM,65.9 µM
COc1ccc(-n2c3cssc-3c(NC(=O)OCCOC(=O)CCCC(=O)c3c(O)cc(C)oc3=O)c2=O)c(OC)c1,1 µg/mL,> 128 µg/mL,32 µg/mL,4 µg/mL,,> 128 µg/mL,41.3%,> 128 µg/mL,1 to 2 µg/mL,1 to 2 µg/mL,4 to 8 µg/mL,1.97 µM,
COc1ccc(-n2c3cssc-3c(NC(=O)N(C)CCOC(=O)CCCC(=O)c3c(O)cc(C)oc3=O)c2=O)c(OC)c1,2 µg/mL,> 128 µg/mL,32 µg/mL,2 µg/mL,,> 128 µg/mL,23.8%,> 128 µg/mL,1 to 2 µg/mL,2 to 4 µg/mL,2 to 4 µg/mL,5.32 µM,
COc1ccc(-n2c3cssc-3c(NC(=O)NCCOC(=O)CCCCCCC(=O)c3c(O)cc(C)oc3=O)c2=O)c(OC)c1,128 µg/mL,> 128 µg/mL,128 µg/mL,32 µg/mL,,> 128 µg/mL,,> 128 µg/mL,,,,,56.3 µM
